Source: ChEMBL document CHEMBL1154350 (Bioorg Med Chem Lett, 2009)
Calls of active or inactive are those of the source. No cut-off for these calls is given here.

Legend:
[1] = biological target: T1, Succinyl-diaminopimelate desuccinylase (Haemophilus influenzae (strain ATCC 51907 / DSM 11121 / KW20 / Rd), UniProt P44514); assay: Inhibition of Haemophilus influenzae recombinant DapE
T1 sequence (P44514 whole entry): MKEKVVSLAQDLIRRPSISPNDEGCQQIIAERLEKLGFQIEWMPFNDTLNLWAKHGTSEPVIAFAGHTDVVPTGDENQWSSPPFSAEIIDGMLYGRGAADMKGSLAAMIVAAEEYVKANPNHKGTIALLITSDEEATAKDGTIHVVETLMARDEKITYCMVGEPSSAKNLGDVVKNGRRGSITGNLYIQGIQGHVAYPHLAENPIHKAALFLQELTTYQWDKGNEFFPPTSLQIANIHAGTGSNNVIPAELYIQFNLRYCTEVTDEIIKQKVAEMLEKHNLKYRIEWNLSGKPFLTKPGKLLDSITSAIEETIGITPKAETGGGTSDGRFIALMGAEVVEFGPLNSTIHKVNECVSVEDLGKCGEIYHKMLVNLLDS

Escherichia coli [2] = assay: Antibacterial activity against Escherichia coli at 1 mg by antibiotic plate assay; type: functional, organism-based
Escherichia coli [3] = assay: Antibacterial activity against Escherichia coli at 5 mg by antibiotic plate assay; type: functional, organism-based
Escherichia coli [4] = assay: Antibacterial activity against Escherichia coli at 20 mg by antibiotic plate assay; type: functional, organism-based
[5] = biological target: T1, Succinyl-diaminopimelate desuccinylase; assay: Inhibition of Haemophilus influenzae recombinant DapE by competitive binding assay
[6] = biological target: T1, Succinyl-diaminopimelate desuccinylase; assay: Inhibition of Haemophilus influenzae recombinant DapE by non-competitive binding assay

Row | IC50 [1] [µM] | SMILES | other results
1 | > 10000 | O=C(O)c1ccc(B(O)O)cc1 | –
2 | > 1000 | O=C(NO)OCc1ccccc1 | –
3 | 43 | O=C(O)CCCS | –
4 | – | C[C@H](CS)C(=O)N1CCC[C@H]1C(=O)O | Activity (Escherichia coli [2]): Active; Activity (Escherichia coli [3]): Active; Activity (Escherichia coli [4]): Active
5 | 50 | CC(C)(S)[C@@H](N)C(=O)O [PENICILLAMINE] | –
6 | ~10000 | CCCCB(O)O [BUTYL BORONIC ACID] | –
7 | 13.7 | CC(C)(S)[C@H](N)C(=O)O | Ki [5]: 4.6 µM
8 | > 1000 | CC(=O)NO [ACETOHYDROXAMIC ACID] | –
9 | 34 | O=C(O)c1cccc(S)c1 | –
10 | > 10000 | O=C(O)c1cccc(B(O)O)c1 | –
11 | 92 | OB(O)c1cccs1 | Ki [6]: 67 µM

Row | SMILES | IC50 [1] [µM] | other results
12 | CCOC(=O)[C@H](CCc1ccccc1)N[C@@H](C)C(=O)N1CCC[C@H]1C(=O)O | > 1000 | –
13 | NC(=S)Nc1ccccc1 [PHENYLTHIOUREA] | > 100 | –
14 | O=C(O)CCP(=O)(O)O | 1620 | Ki [1]: 800 µM
